Reference: paper PMC11742250, “Study on the absorption characteristics of euscaphic acid and tiliroside in fruits of Rosa laxa Retz” (PeerJ, 2025)
Blank lines part the entries; values can stand above or below the molecule they belong to.

What was measured:
Type in all cases: in vitro ADME, human
in vitro = conditions: human
Description: (§1) A precise amount of FRLE reserve solution is diluted to concentrations of 50, 100, and 150 μg/mL, representing the low, medium, and high concentrations of FRLE. Additionally, solutions are prepared containing 0.100 μmoL/mL Verapamil (Ver), 0.099 μmoL/mL Cyclosporine A (CsA), and 0.025 μmoL/mL EGTA at low, medium, and high concentrations for bidirectional transport.
(§2) Caco-2 cells are seeded at a density of 2.5 × 10^5 cells/mL, with 0.5 mL inoculated into each well of a Transwell® 12-well plate. After continuous culturing for 18 days, the cell model is established. Bidirectional transport experiments include AP→BL ([…], absorption transport) and BL→AP ([…], secretion transport).
(§3) Taking absorption transport as an example: 0.5 mL of drug-containing Hank’s Balanced Salt Solution (HBSS) solution is added to the apical (AP) side (supply side), while 1.5 mL of blank solution is added to the basolateral (BL) side (receiving side). At time points 15, 30, 60, 90, 120, 150, and 180 min, 200 µL is drawn from the BL side and simultaneously supplemented with 200 µL of HBSS buffer. The samples are then evaporated in a water bath, re-dissolved in methanol, and centrifuged at 12,000 rpm for 10 min. The supernatant is taken and assayed under the conditions described in “Establishment of the determination method for euscaphic acid and tiliroside”. The effects of different times, concentrations, inhibitors, chelating agents, and pH values on the absorption characteristics of euscaphic acid and tiliroside in FRLE are investigated. The secretion transport procedure is identical to the absorption transport ([Artursson & Karlsson, 1991]).
(§4) The side with the added blank solution is considered the receiving side, and the amount of drug in the receiving side is regarded as its absorption amount (Qr). In the A→B transport test, the amount of drug absorbed by the B-side chamber at any time point is denoted as (QrBi). In the B→A transport test, the amount of drug absorbed by the A-side chamber at any time point is (QrAi). The specific calculations are provided in the following formulas:
(§5) A-B transport: QrBi = 0.2 × (Cr1 + Cr2 + Λ + Cr(i-1)) + 1.5 × Cri
(§6) B-A transport: Qrdi = 0.2 × (Cr1 + Cr2 + Λ + Cr(i-1)) + 0.5 × Cdi
(§7) In the formula, 1.5 represents the volume of the test solution added to the B-side chamber (mL), 0.5 represents the volume of the test solution added to the A-side chamber (mL), and 0.2 is the volume of each sample taken (mL). Cri is the actual concentration in the receiving chamber at the i-th time point (μg/mL). The apparent permeability coefficient Papp (cm/s) is calculated using the following formula ([Lu et al., 2020]):
(§8) Papp=dQ/dt×1/A×C0 dQ/dt represents the amount of drug transported per unit of time (μg/s); A is the surface area of the 12-well Transwell® membrane (1.12 cm^2), and C0 is the initial concentration of the drug in the donor side ([…]) ([Qu et al., 2021]).
(§9) Exhaust ratio (RB-A/A-B)) is calculated using the following formula: RB−A/A−B=Papp(B−A)/Papp(A−B)

Caco-2 cells [1] = assay: in vitro
Description: as §1, §2, §3, §4, §5, §6, §7, §8, §9

P-gp = assay: in vitro; conditions: human
Description: as §1, §2, §3, §4, §5, §6, §7, §8, §9

Caco-2 cells [2] = assay: Evaluation of the Caco-2 cell model with fluorescein sodium as marker (Papp, monolayer integrity); conditions: Caco-2 monolayer, four repeated measurements
Description: The evaluation of the Caco-2 cell model primarily involves using fluorescein sodium as a marker. The cells are seeded in a 12-well cell plate (10^5 cells/well) and observed and photographed every two days under a fluorescence inverted microscope. The transepithelial electrical resistance (TEER) is measured using a resistance meter (Millipore Millicell ERS-2; Millipore Sigma, Darmstadt, Germany). […] Markers used for detection mainly include mannitol, inulin, and fluorescein sodium.

[3] = Caco-2, Papp × 10^−4 (cm/s) (A→B)
[4] = Caco-2, Papp × 10^−4 (cm/s) (B→A)
[5] = Caco-2, pH 5, Papp × 10^−4 (cm/s) (A→B)
[6] = Caco-2, pH 5, Papp × 10^−4 (cm/s) (B→A)
[7] = Caco-2, pH 6, Papp × 10^−4 (cm/s) (A→B)
[8] = Caco-2, pH 6, Papp × 10^−4 (cm/s) (B→A)
[9] = Caco-2, pH 8, Papp × 10^−4 (cm/s) (A→B)
[10] = Caco-2, pH 8, Papp × 10^−4 (cm/s) (B→A)
[11] = Caco-2, pH 9, Papp × 10^−4 (cm/s) (A→B)
[12] = Caco-2, pH 9, Papp × 10^−4 (cm/s) (B→A)

Papp at 180 min (in vitro; Caco-2): 0.42 to 8.08 nm/s
Papp A→B at 180 min, 50 μg/mL (in vitro; [3]): 1370 ± 20 nm/s
Papp A→B at 180 min, 100 μg/mL (in vitro; [3]): 1760 ± 130 nm/s
Papp A→B at 180 min, 150 μg/mL (in vitro; [3]): 2680 ± 90 nm/s
Papp B→A at 180 min, 50 μg/mL (in vitro; [4]): 1290 ± 20 nm/s
Papp B→A at 180 min, 100 μg/mL (in vitro; [4]): 2100 ± 40 nm/s
Papp B→A at 180 min, 150 μg/mL (in vitro; [4]): 2830 ± 30 nm/s
efflux ratio at 180 min, 50 μg/mL (in vitro; Caco-2, RB→A/A→B): 0.82 ± 0.04
efflux ratio at 180 min, 100 μg/mL (in vitro; Caco-2, RB→A/A→B): 0.75 ± 0.07
efflux ratio at 180 min (in vitro; Caco-2, efflux ratio (RB→A/A→B)): < 1.5
Papp A→B at 180 min, 50 μg/mL (in vitro; [5]): 3800 ± 90 nm/s
Papp A→B at 180 min, 100 μg/mL (in vitro; [5]): 4090 ± 70 nm/s
Papp A→B at 180 min, 150 μg/mL (in vitro; [5]): 6490 ± 80 nm/s
Papp B→A at 180 min, 50 μg/mL (in vitro; [6]): 4480 ± 80 nm/s
Papp B→A at 180 min, 100 μg/mL (in vitro; [6]): 5360 ± 140 nm/s
Papp B→A at 180 min, 150 μg/mL (in vitro; [6]): 7180 ± 240 nm/s
efflux ratio at 180 min, 50 μg/mL (in vitro; Caco-2, pH 5, RB→A/A→B): 1.18 ± 0.01
efflux ratio at 180 min, 100 μg/mL (in vitro; Caco-2, pH 5, RB→A/A→B): 1.31 ± 0.02
efflux ratio at 180 min, 150 μg/mL (in vitro; Caco-2, pH 5, RB→A/A→B): 1.11 ± 0.05
Papp A→B at 180 min, 50 μg/mL (in vitro; [7]): 4730 ± 240 nm/s
Papp A→B at 180 min, 100 μg/mL (in vitro; [7]): 4680 ± 140 nm/s
Papp A→B at 180 min, 150 μg/mL (in vitro; [7]): 6180 ± 280 nm/s
Papp B→A at 180 min, 50 μg/mL (in vitro; [8]): 5680 ± 240 nm/s
Papp B→A at 180 min, 100 μg/mL (in vitro; [8]): 6140 ± 80 nm/s
Papp B→A at 180 min, 150 μg/mL (in vitro; [8]): 8080 ± 150 nm/s
efflux ratio at 180 min, 50 μg/mL (in vitro; Caco-2, pH 6, RB→A/A→B): 1.2 ± 0.11
efflux ratio at 180 min (in vitro; Caco-2, pH 6, RB→A/A→B value): ~1
Papp A→B at 180 min, 50 μg/mL (in vitro; [9]): 860 ± 120 nm/s
Papp A→B at 180 min, 100 μg/mL (in vitro; [9]): 920 ± 170 nm/s
Papp A→B at 180 min, 150 μg/mL (in vitro; [9]): 960 ± 140 nm/s
Papp B→A at 180 min, 50 μg/mL (in vitro; [10]): 830 ± 6000 nm/s
Papp B→A at 180 min, 100 μg/mL (in vitro; [10]): 880 ± 110 nm/s
Papp B→A at 180 min, 150 μg/mL (in vitro; [10]): 930 ± 180 nm/s
efflux ratio at 180 min, 50 μg/mL (in vitro; Caco-2, pH 8, RB→A/A→B): 1.03 ± 0.01
efflux ratio at 180 min, 100 μg/mL (in vitro; Caco-2, pH 8, RB→A/A→B): 1.04 ± 0.03
Papp A→B at 180 min, 50 μg/mL (in vitro; [11]): 450 ± 40 nm/s
Papp A→B at 180 min, 100 μg/mL (in vitro; [11]): 560 ± 240 nm/s
Papp A→B at 180 min, 150 μg/mL (in vitro; [11]): 660 ± 260 nm/s
Papp B→A at 180 min, 50 μg/mL (in vitro; [12]): 420 ± 150 nm/s
Papp B→A at 180 min, 100 μg/mL (in vitro; [12]): 540 ± 180 nm/s
Papp B→A at 180 min, 150 μg/mL (in vitro; [12]): 620 ± 210 nm/s
efflux ratio at 180 min, 50 μg/mL (in vitro; Caco-2, pH 9, RB→A/A→B): 1.07 ± 0.06
P-gp substrate status (Caco-2 cells [1]; Caco-2): substrates of P-gp
absorption category from Papp (Caco-2 cells [1]; Caco-2): good absorption
transport mechanism (Caco-2 cells [1]; Caco-2): passive diffusion
Papp (Caco-2 cells [1]; human, Caco-2, 180 min): greater than 10^−6
RB→A/A→B ratios, range over all conditions (Caco-2 cells [1]; human, Caco-2, 180 min): 0.75-1.31
RB→A/A→B (Caco-2 cells [1]; human, Caco-2, 180 min, 100 μg/mL, pH 6): 1.31 ± 0.05
RB→A/A→B (Caco-2 cells [1]; human, Caco-2, 180 min, 100 μg/mL, pH 9): 1.03 ± 0.04
RB→A/A→B (Caco-2 cells [1]; human, Caco-2, 180 min, 150 μg/mL, pH 6): 1.21 ± 0.15
RB→A/A→B (Caco-2 cells [1]; human, Caco-2, 180 min, 150 μg/mL, pH 8): 1.03 ± 0.05
RB→A/A→B (Caco-2 cells [1]; human, Caco-2, 180 min, 150 μg/mL, pH 9): 1.06 ± 0.05
Papp A→B at 180 min, 50 μg/mL (P-gp; [3]): 1420 ± 20 nm/s
Papp A→B at 180 min, 100 μg/mL (P-gp; [3]): 1800 ± 50 nm/s
Papp A→B at 180 min, 150 μg/mL (P-gp; [3]): 2610 ± 60 nm/s
Papp B→A at 180 min, 50 μg/mL (P-gp; [4]): 1560 ± 30 nm/s
Papp B→A at 180 min, 100 μg/mL (P-gp; [4]): 2260 ± 90 nm/s
Papp B→A at 180 min, 150 μg/mL (P-gp; [4]): 2760 ± 10 nm/s
efflux ratio at 180 min, 50 μg/mL (P-gp; Caco-2, RB→A/A→B): 1.09 ± 0.03
efflux ratio at 180 min, 100 μg/mL (P-gp; Caco-2, RB→A/A→B): 1.25 ± 0.06
efflux ratio at 180 min, 150 μg/mL (P-gp; Caco-2, RB→A/A→B): 0.96 ± 0.02
Structure (SMILES): O=C(/C=C/c1ccc(O)cc1)OC[C@H]1O[C@@H](Oc2c(-c3ccc(O)cc3)oc3cc(O)cc(O)c3c2=O)[C@H](O)[C@@H](O)[C@@H]1O [Tiliroside]

Structure (SMILES): O=C([O-])c1ccccc1-c1c2ccc(=O)cc-2oc2cc([O-])ccc12.[Na+].[Na+] [fluorescein sodium, Fluorescein sodium]
Papp of fluorescein sodium (Caco-2 cells [2]): 4.06 ± 0.17 × 10^−7 cm/s
